Data on eight compounds can be found in PMC8914261, “Discovery and Characterization of the Naturally Occurring Inhibitors Against Human Pancreatic Lipase in Ampelopsis grossedentata” (Frontiers in Nutrition, 2022).

Data set [1] can be described thus: Estimated local exposure in the gastrointestinal tract (daily dose divided by volume of the human gastrointestinal system). To be noted: oral AGE at daily dosage recommended by Chinese Materia Medica. The source says:
A. grossedentata is known as the “king of flavonoids”, while the content of total flavonoids in AGE is up to 45% ([57]). Herein, a total of nine flavonoids in AGE were identified and characterized by LC–MS/MS-based chemical profiling.

Data set [2] addresses T1, human pancreatic lipase (hPL) (Homo sapiens, UniProt P16233).
T1 construct: made in house
T1 sequence (P16233 17-465): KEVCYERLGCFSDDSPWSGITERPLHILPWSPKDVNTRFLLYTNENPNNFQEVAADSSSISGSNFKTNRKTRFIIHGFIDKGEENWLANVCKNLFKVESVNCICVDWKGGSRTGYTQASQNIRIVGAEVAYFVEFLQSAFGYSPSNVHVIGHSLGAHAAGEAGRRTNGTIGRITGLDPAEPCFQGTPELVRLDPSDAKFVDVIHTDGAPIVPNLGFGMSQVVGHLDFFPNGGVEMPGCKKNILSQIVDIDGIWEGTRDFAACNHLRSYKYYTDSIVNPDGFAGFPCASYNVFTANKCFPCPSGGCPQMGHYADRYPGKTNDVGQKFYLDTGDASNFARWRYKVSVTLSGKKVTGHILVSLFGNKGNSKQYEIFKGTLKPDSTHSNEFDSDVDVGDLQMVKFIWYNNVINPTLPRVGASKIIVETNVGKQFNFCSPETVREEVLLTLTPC
In words: hPL inhibition assay (hPL-catalyzed DDAO-ol hydrolysis, fluorescence). It is filed as biochemical. To be noted: for IC50: hPL, DDAO-ol 20 μM as substrate, 3 min pre-incubation at 37°C; for hPL inhibition activity (qualitative): tested at 1, 10 and 100 μM; for remaining activity at 10 µM: inhibitor at 10 μM, read-out: residual activities of hPL; for hPL inhibition at high dose: inhibitor at 100 μM.

The conditions of data set [3]: oral administration; ref [60], [61]; cited from earlier work.
The target of data set [4] is T1, human pancreatic lipase (hPL). In words: Inhibition kinetic analyses against hPL-catalyzed DDAO-ol hydrolysis (Lineweaver-Burk). The format is biochemical.
Data set [5] shares this target. In words: Time-dependent inhibition assay of hPL (different pre-incubation times). To be noted: long pre-incubation time vs. standard. The format is biochemical. Here is the method: After pre-incubating at 37°C for 3 min, the substrate of DDAO-ol (20 μM, final concentration) was added to the initial reaction. […] The standard curve was plotted using DDAO as product standard (Supplementary Figure S6). The control incubations without inhibitors were also performed.

As a reminder, the IC50 is the concentration at which inhibition is half-maximal. Higher therefore signals weaker potency. For `O=C1c2c(O)cc(O)cc2O[C@H](c2cc(O)c(O)c(O)c2)[C@H]1O` [Dihydromyricetin], in data set [1], the “local exposure in the gastrointestinal tract” value was 206.08 µM. In data set [2], this compound yielded a 50% inhibitory concentration (IC50) of 34.3 ± 4.63 µM. Further, in data set [3], the “local exposure in stomach and small intestine vs. other deep organs (heart, liver, spleen, lung, kidney, brain)” value is recorded as “much higher”; the oral bioavailability result is “very poor”.

In the case of `O=C1c2c(O)cc(O)cc2O[C@H](c2cc(O)c(O)c(O)c2)[C@@H]1O` [Iso-dihydromyricetin], the “local exposure in the gastrointestinal tract” value in data set [1] is 106.90 µM. In addition, in data set [2], 14.4 ± 1.21 µM corresponded to half-maximal inhibition (IC50) and the “hPL inhibition activity (qualitative)” value is recorded as “moderate”.

In the case of `O=c1c(O)c(-c2cc(O)c(O)c(O)c2)oc2cc(O)cc(O)c12` [Myricetin], the “local exposure in the gastrointestinal tract” value in data set [1] is 19.37 µM. For the same compound, the Ki in data set [4] (apparent Ki) stood at 2.04 ± 0.75 µM. Besides, in data set [2], the 50% inhibitory concentration (IC50) was 1.34 ± 0.18 µM and the remaining activity at 10 µM is below 15%. Besides, the “time dependence of hPL inhibition” value in data set [5] is listed as “not time-dependent”.

On to `O=c1c(O)c(-c2ccc(O)c(O)c2)oc2cc(O)cc(O)c12` [Quercetin], for which the Inhibition mode result in data set [4] (Lineweaver-Burk plots) is recorded as “Non-competitive”. In data set [2], the remaining activity at 10 µM is below 15%. The “time dependence of hPL inhibition” value in data set [5] was “not time-dependent”.

Take `O=c1c(O[C@@H]2OC[C@@H](O)[C@H](O)[C@H]2O)c(-c2ccc(O)c(O)c2)oc2cc(O)cc(O)c12` [Reynoutirn, Reynoutrin]: in data set [2], the IC50 was above 100 µM and the “hPL inhibition at high dose” value was “did not inhibit”.

`O=C1c2c(O)cc(O)cc2OC(c2ccc(O)c(O)c2)C1O` (stereo not shown) [Taxifolin]: the “local exposure in the gastrointestinal tract” value in data set [1] was 11.85 µM. In data set [2], the midpoint of inhibition, the IC50, lay at 27.8 ± 2.92 µM and the “hPL inhibition activity (qualitative)” value was “moderate”.

For the compound Myricitrin, in data set [2], the “hPL inhibition at high dose” value is reported as “did not inhibit”.

For “Sanggenone C [SanggenoneC, reference compound]”, 3.46 ± 0.07 µM corresponded to half-maximal inhibition in data set [2] (IC50).
